From patent US20020192274A1, “pH sensitive liposomal drug delivery” (priority 2001, published 2002)

Tests used:
TNF-α [1] = test: LPS-induced TNF-α secretion by liver slices after in vivo ASO administration (ELISA); design: species or system rat; details: for inhibition of LPS-induced TNF-α production in liver slices: vs empty liposomes
Protocol: FIG. 4. In vivo efficacy of ASO TJU-2755 (SEQ. ID. NO: 1) against TNF-α in the liver: Effect of duration post-injection. Rats are intravenously injected with pH-sensitive liposomes encapsulated with TJU-2755 (1.5-1.75 mg/Kg body wt). At different times (24, 48 and 72 h) after ASO administration, LPS (50 μg/Kg body weight for 90 minutes) is administered intravenously (i.v.) and the animals are sacrificed 90 min after this challenge. Liver is excised, slices prepared and incubated for 2 h (infra). The amount of TNF-α released into the medium is measured by ELISA. The TNF-α values (bars) from the ASO-treated animals are normalized to control values (control=100) obtained from body weight-matched rats treated similarly except that they are injected with “empty” liposomes. Values indicated are means ±S.E. of (n) determinations. Number of animals, 24 h, n=3; 48 h, n=4, 72 h, n=3. * p<0.05 (vs Control).
FIG. 5. In vivo efficacy of ASO TJU-2755 (SEQ. ID. NO: 1) against TNF-α in the liver: Effect of multiple injections. Rats are injected with either one or two daily doses of ASO (1.5-1.75 mg/Kg body wt) encapsulated liposomes. […] The amount of TNF-α produced by liver slices is determined as described in legend to FIG. 4 (supra). Bars indicate the amount of TNF-α produced by ASO-treated animals, expressed as percent of controls injected with “empty” liposomes and are the means ±S.E. of n=4 for single dose and n=7 for two doses. *p<0.05, **p<0.01 vs control). The absolute values (Mean) of TNF-α for control and TNF-2755-treated livers (for two daily doses) were 17,748 and 7,500 pg/g liver, respectively.
Following the in vivo administration of LPS, the production of TNF-α in the liver is assessed by measuring the amount of TNF-α secreted by liver slices. Liver slices are prepared and incubated in culture medium according to the procedure described by Videla and Israel (Videla, L., Israel, Y., Biochem J. 118: 275-281, 1970) with modifications, which include the addition of insulin and fetal calf serum to the culture medium. Briefly, liver slices of uniform thickness (10×4×0.4 mm) are prepared from the mid lobe and initially rinsed in ice-cold William's E medium. The slices (2 slices per dish) are transferred to culture dishes (35 mm) containing 2 ml of fresh medium (90% William's E, 10% fetal calf serum and 2 units of insulin/100 ml) and incubated at 37° C. for 2 h. The amount of TNF-α released into the medium is measured (infra).
(§1) ELISA is conducted by using Cytoscreen KRC3012 kits (Biosource, Camarillo, Calif.) according to the manufacturer's specifications. Supernatants containing high TNF-α levels are diluted prior to the assay to assure assay results within the standard curve.
(§2) Rats are injected intravenously with two daily doses (1.5 mg/Kg body wt.) of ASO TJU-2755 (SEQ. ID. NO: 1) encapsulated in pH-stable liposomes and challenged with LPS (50 μg/Kg body wt.) at 48 h post injection. Animals are sacrificed 90 minutes post-LPS. The amount of TNF-α in plasma, as well as that secreted by liver slices, is determined exactly as described for pH-sensitive liposomes (supra) and legends to FIG. 4 and FIG. 5. Body-weight matched rats injected with two doses of “empty” liposomes and challenged similarly with LPS constituted the control group. All TNF-α values are normalized to the corresponding control groups (=100). Values are expressed as mean ±S.E of (n) determinations.

TNF-α [2] = test: Plasma TNF-α after LPS challenge following in vivo ASO administration (ELISA); design: species or system rat
Protocol: FIG. 6. […] Rats are injected with either one (n=3), two (n=8) or three (n=1) daily doses of TJU-2755 (SEQ. ID. NO: 1) and administered LPS (50 μg/Kg body wt.) at 48 h after the last injection of the antisense formulation as described in legend to FIG. 5. […] Plasma TNF-α is determined by ELISA. Bars indicate values from ASO-treated animals expressed as percent of corresponding controls (animals dosed with “empty liposomes”) and are the means ±S.E of (n) determinations. ***p<0.001 between rats injected two daily doses of ASO and controls. The absolute (Mean) values of TNF-α for control and TJU-2755 (SEQ. ID. NO: 1)-treated plasma samples (for two daily doses) were 34,375 and 9,731 (pg/ml plasma) respectively.
as §1, §2

TNF-α mRNA = test: Tissue levels of TNF-α mRNA by Northern hybridization; type: in vivo, rat; details: pH-sensitive liposomes, two daily doses 1.5 mg/Kg, LPS 48 h post ASO, normalized to GAPDH, vs empty liposomes
Protocol: FIG. 8. Effect of ASO TJU-2755 (SEQ. ID. NO: 1) in vivo on TNF-α mRNA. Rats are injected with two daily doses (1.5 mg/Kg body wt.) of ASO and injected with LPS (50 μg/Kg body wt.) 48 h post ASO administration as described in legend to FIG. 5. Liver (n=5) and spleen (n=4) are processed for the extraction of mRNA fractions. Steady-state levels of TNF-α mRNA are determined by Northern hybridization and normalized to the levels of GAPDH mRNA. Bars indicate mRNA (Means ±S.E) of (n) values from ASO-treated samples, expressed as percent of control values derived from rats treated with “empty” liposomes. *p<0.05, **p<0.01 (Vs control).
Liver and spleen samples (≈100 mg) are homogenized in 3 volumes of cold TRI Reagent (Molecular Research Center, Inc.). […] The intactness of total RNA is measured by agarose (1%) gel electrophoresis by visualizing the intactness of ribosomal RNA (28S, 18S). […] The purity of the isolated mRNA is monitored by analyzing the absorption ratios of 260 to 280 (nm), which always ranged from 1.8-2.0.
Samples of mRNA are run on 1% agarose gel electrophoresis, vacuum transferred (BIORAD Model 785 Vacuum Blotter) onto a nitrocellulose membrane (Amersham), and crosslinked (Statagene UV Stratalinker 2400). […] The autoradiograms are quantitated using an ultrascan laser densitometer. […]

TNF-α [3] = details: primary Kupffer cells ex vivo; cited from earlier work
[4] = pH-stable liposomes, two daily doses 1.5 mg/Kg i.v., LPS at 48 h, mean ± S.E

Q: For “TJU-2755: phosphorothioate 21-mer antisense oligonucleotide 5′-TGATCCACTCCCCCCTCCACT-3′, complementary to the 3′-untranslated region of rat TNF-α mRNA (all phosphorothioate, sugars by position and methylation of C not given here)”, which “inhibitory effect on LPS-induced TNF-α production” value (TNF-α [1]; ASO delivered with pH-stable liposomes (liver and plasma, Table 1)) is on record?
A: no inhibitory effect

Q: And the “inhibition of LPS-induced TNF-α production in liver slices” value (TNF-α [1]; pH-sensitive liposomes, single i.v. dose, LPS 48 h post injection)?
A: ~30%

Q: What about the “inhibition of LPS-induced TNF-α production in liver slices” value (TNF-α [1]; pH-sensitive liposomes, two daily doses, LPS 48 h after last injection) of the same substance?
A: 50%

Q: What about the “TNF-α produced by liver slices, absolute mean” value (TNF-α [1]; pH-sensitive liposomes, two daily doses, control 17,748) of the same substance?
A: 7,500 pg/g liver

Q: And the “TNF-α (%) liver, normalized to control (=100)” value (TNF-α [1]; [4])?
A: 103 ± 23%

Q: And the “reduction in plasma TNF-α levels” value (TNF-α [2]; pH-sensitive liposomes, 2 doses, LPS 48 h after last injection, vs empty liposomes)?
A: 68%

Q: And the “plasma TNF-α, absolute mean” value (TNF-α [2]; pH-sensitive liposomes, two daily doses, control 34,375)?
A: 9,731 pg/ml plasma

Q: What about the “TNF-α (%) plasma, normalized to control (=100)” value (TNF-α [2]; [4]) of the same substance?
A: 93 ± 28%

Q: What about the “reduction in TNF-α mRNA levels, spleen” value (TNF-α mRNA) of the same substance?
A: 36.5%

Q: What about the “reduction in steady-state levels of TNF-α mRNA, liver” value (TNF-α mRNA) of the same substance?
A: 35%

Q: What about the “inhibition of LPS-stimulated TNF-α production” value (TNF-α [3]) of the same substance?
A: > 90%
